Assay results from PubChem BioAssay AID330 (DTP/NCI, 2004).
Values joined by “and” are separate entries in the source; they are usually repeats but may differ in a detail not shown here. Equal entries are not always repeated. Inconclusive results and toxic doses are left out.

System: P388 leukemia ip, CD2F1 mice, survival T/C
Assay: NCI In Vivo Anticancer Drug Screen. Data for tumor model P388 Leukemia (intraperitoneal) in CD2F1 (CDF1) mice
Settings: endpoint: median survival time, higher = longer survival
Outline: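 Mice carrying the transplanted tumor received test compound or vehicle. Survival was recorded in each group, and the value is the treated-group measurement divided by that of the vehicle-treated control group.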

[1] = dose: 50.0 mg/kg/injection, schedule: Q01DX005 (ip), vehicle: Klucel (hydroxypropylcellulose) (HPC)
[2] = dose: 100.0 mg/kg/injection, schedule: Q01DX005 (ip), vehicle: Klucel (hydroxypropylcellulose) (HPC)
[3] = dose: 200.0 mg/kg/injection, schedule: Q01DX005 (ip), vehicle: Klucel (hydroxypropylcellulose) (HPC)

CC(=O)Oc1ccc(C(O)CN(C)OC(C)=O)cc1OC(C)=O (stereo not given)
T/C (dose: 12.5 mg/kg/injection, schedule: Q01DX005 (ip), vehicle: Klucel + Tween-80): 100 % of control
T/C (dose: 25.0 mg/kg/injection, schedule: Q01DX005 (ip), vehicle: Klucel + Tween-80): 101 % of control
T/C (dose: 50.0 mg/kg/injection, schedule: Q01DX005 (ip), vehicle: Klucel + Tween-80): 101 % of control and 92 % of control

CC1C2C=CC1C=C2 (stereo not given)
T/C (dose: 50.0 mg/kg/injection, schedule: Q01DX009 (ip), vehicle: saline): 98 % of control
T/C (dose: 100.0 mg/kg/injection, schedule: Q01DX009 (ip), vehicle: saline): 91 % of control
T/C (dose: 200.0 mg/kg/injection, schedule: Q01DX009 (ip), vehicle: saline): 98 % of control

Cc1cc(N(CCCl)CCCl)ccc1C=Nc1ccccc1C(=O)O
T/C (dose: 25.0 mg/kg/injection, schedule: Q01DX009 (ip), vehicle: saline with Tween-80): 117 % of control
T/C (dose: 50.0 mg/kg/injection, schedule: Q01DX009 (ip), vehicle: saline with Tween-80): 115 % of control
T/C (dose: 200.0 mg/kg/injection, schedule: Q01DX009 (ip), vehicle: saline with Tween-80): 150 % of control

CCCCCCN(CCCCCC)CC(O)c1ccc(Br)c2ccccc12 (stereo not given)
T/C (dose: 50.0 mg/kg/injection, schedule: Q01DX005 (ip), vehicle: saline with Tween-80): 93 % of control
T/C (dose: 100.0 mg/kg/injection, schedule: Q01DX005 (ip), vehicle: saline with Tween-80): 93 % of control
T/C (dose: 200.0 mg/kg/injection, schedule: Q01DX005 (ip), vehicle: saline with Tween-80): 88 % of control

ClCCc1ccn[nH]1
T/C (dose: 100.0 mg/kg/injection, schedule: Q04DX002 (ip), vehicle: saline): 97 % of control
T/C (dose: 200.0 mg/kg/injection, schedule: Q04DX002 (ip), vehicle: saline): 99 % of control

COc1cc(C(=O)NCC(=O)NN=C(C)C)cc(OC)c1OC
T/C [1]: 104 % of control
T/C [2]: 95 % of control
T/C [3]: 107 % of control

NNc1nnnn1-c1ccccc1
T/C (dose: 50.0 mg/kg/injection, schedule: Q01DX001 (ip), vehicle: Klucel (hydroxypropylcellulose) (HPC)): 100 % of control
T/C (dose: 100.0 mg/kg/injection, schedule: Q01DX001 (ip), vehicle: Klucel (hydroxypropylcellulose) (HPC)): 104 % of control
T/C (dose: 200.0 mg/kg/injection, schedule: Q01DX001 (ip), vehicle: Klucel (hydroxypropylcellulose) (HPC)): 102 % of control

CC1(Cc2ccccc2)NC(=O)NC1=O (stereo not given)
T/C (dose: 50.0 mg/kg/injection, schedule: Q01DX009 (ip), vehicle: Klucel (hydroxypropylcellulose) (HPC)): 100 % of control
T/C (dose: 100.0 mg/kg/injection, schedule: Q01DX009 (ip), vehicle: Klucel (hydroxypropylcellulose) (HPC)): 104 % of control
T/C (dose: 200.0 mg/kg/injection, schedule: Q01DX009 (ip), vehicle: Klucel (hydroxypropylcellulose) (HPC)): 105 % of control

N#CC(=O)Nc1ccc(Cl)c(Cl)c1
T/C (dose: 7.5 mg/kg/injection, schedule: Q01DX005 (ip), vehicle: Klucel (hydroxypropylcellulose) (HPC)): 104 % of control
T/C (dose: 15.0 mg/kg/injection, schedule: Q01DX005 (ip), vehicle: Klucel (hydroxypropylcellulose) (HPC)): 99 % of control
T/C (dose: 30.0 mg/kg/injection, schedule: Q01DX005 (ip), vehicle: Klucel (hydroxypropylcellulose) (HPC)): 100 % of control

CO/C1=C\C(C)=C\C(C)C(O)C(C)C/C(C)=C/C=C/C(OC)C(C(C)C(O)C(C)C(=O)/C=C/C(C)C(C)O)OC1=O (stereo not given)
T/C (dose: 6.25 mg/kg/injection, schedule: Q01DX005 (ip), vehicle: other): 108 % of control
T/C (dose: 12.5 mg/kg/injection, schedule: Q01DX005 (ip), vehicle: other): 98 % of control
T/C (dose: 25.0 mg/kg/injection, schedule: Q01DX005 (ip), vehicle: other): 103 % of control
T/C (dose: 25.0 mg/kg/injection, schedule: Q01DX005 (ip), vehicle: saline + Tween-80 + alcohol): 103 % of control
T/C (dose: 50.0 mg/kg/injection, schedule: Q01DX005 (ip), vehicle: other): 106 % of control
T/C (dose: 50.0 mg/kg/injection, schedule: Q01DX005 (ip), vehicle: saline + Tween-80 + alcohol): 94 % of control
T/C (dose: 100.0 mg/kg/injection, schedule: Q01DX005 (ip), vehicle: saline + Tween-80 + alcohol): 94 % of control

C[Si](C)(C)N1[Si](C)(C)N[Si](C)(C)N([Si](C)(C)F)[Si]1(C)C
T/C [1]: 113 % of control
T/C [2]: 105 % of control
T/C [3]: 104 % of control

Cc1onc(-c2c(F)cccc2Cl)c1C(=O)Oc1ccccc1
T/C (dose: 30.0 mg/kg/injection, schedule: Q01DX005 (ip), vehicle: saline with Tween-80): 100 % of control
T/C (dose: 60.0 mg/kg/injection, schedule: Q01DX005 (ip), vehicle: saline with Tween-80): 100 % of control
T/C (dose: 120.0 mg/kg/injection, schedule: Q01DX005 (ip), vehicle: saline with Tween-80): 103 % of control
T/C (dose: 240.0 mg/kg/injection, schedule: Q01DX005 (ip), vehicle: saline with Tween-80): 99 % of control
